This note sets out measurements from publication PMC3885546, “Structural Determinants of the 5′-Methylthioinosine Specificity of Plasmodium Purine Nucleoside Phosphorylase” (PLoS ONE, 2014).

A word on the Km: it is the concentration of substrate that gives half-maximal velocity. For orientation: kcat means the number of substrate molecules converted per active site and unit of time at saturation.

What all share (assay type): biochemical
For one assay, the target named is T1, PfPNP Val73Ile/Tyr160Phe (Plasmodium falciparum, UniProt Q8I3X4, V73I/Y160F).
T1 construct: made in house; host or cells: Escherichia coli Top 10
T1 sequence (Q8I3X4 1-245 V73I/Y160F): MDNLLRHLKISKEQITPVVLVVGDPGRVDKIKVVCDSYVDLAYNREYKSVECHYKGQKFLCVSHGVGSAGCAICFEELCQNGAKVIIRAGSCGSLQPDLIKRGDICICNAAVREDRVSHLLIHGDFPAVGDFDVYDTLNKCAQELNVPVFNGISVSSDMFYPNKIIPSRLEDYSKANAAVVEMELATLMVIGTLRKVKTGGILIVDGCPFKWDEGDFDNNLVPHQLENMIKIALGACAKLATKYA
In words: Substrate kinetics, coupled assay. Particulars: for Km / kcat: substrate = label. How it is done:
(§1) Kinetic assays were completed in 50 mM KH2PO4 at pH 7.4 measuring phosphorylysis of inosine or MTI by PNP in a coupled reaction with 60 milliunits/ml xanthine oxidase to convert hypoxanthine to uric acid. Formation of uric acid was measured at 293 nm wavelength (E293 = 12.9 mM^−1 cm^−1), [20]. In cases where activity for MTI was low, increased protein concentration (10 µg/ml) was used to check enzyme function. Assays were performed with excess substrate in the presence of inhibitors. Inhibition studies measured both initial (Ki) and slow onset inhibition (Ki*) for inhibitors. The initial onset inhibition was analyzed by using the following equation: ν ο = (k cat×S)/(K m(1+I/Ki)+S), ν ο is the steady state rate, k cat catalytic rate, S is substrate concentration, Km is Michealis constant for inosine, I is inhibitor concentration, and Ki is the equilibrium dissociation constant.

Another assay has as its target T2, PfPNP Val66Ala (Plasmodium falciparum, UniProt Q8I3X4, V66A).
T2 construct: made in house; host or cells: Escherichia coli Top 10
T2 sequence (Q8I3X4 1-245 V66A): T1 sequence (Q8I3X4 1-245 V73I/Y160F) with V66A, I73V, F160Y
In words: Substrate kinetics, coupled assay. As to conditions: for Km / kcat: substrate = label. The method, then:
as §1

For the next assay, the target named is T3, PfPNP Tyr160Ala (Plasmodium falciparum, UniProt Q8I3X4, Y160A).
T3 construct: made in house; host or cells: Escherichia coli Top 10
T3 sequence (Q8I3X4 1-245 Y160A): T1 sequence (Q8I3X4 1-245 V73I/Y160F) with I73V, F160A
As to the kind of experiment: Substrate kinetics, coupled assay. As to conditions: for Km / kcat / reduced catalytic efficiency compared to wild-type PfPNP: substrate = label. How it is done: as §1

In a further assay the target is T4, PfPNP Val66Ile (Plasmodium falciparum, UniProt Q8I3X4, V66I).
T4 construct: made in house; host or cells: Escherichia coli Top 10
T4 sequence (Q8I3X4 1-245 V66I): T1 sequence (Q8I3X4 1-245 V73I/Y160F) with V66I, I73V, F160Y
In words: Substrate kinetics, coupled assay. How it is done:
as §1

The next assay addresses T5, PfPNP Val73Ile (Plasmodium falciparum, UniProt Q8I3X4, V73I).
T5 construct: made in house; host or cells: Escherichia coli Top 10
T5 sequence (Q8I3X4 1-245 V73I): T1 sequence (Q8I3X4 1-245 V73I/Y160F) with F160Y
As to the kind of experiment: Substrate kinetics, coupled assay. As to conditions: for Km / kcat: substrate = label. How it is done: as §1

The next assay has as its target T6, PfPNP Val66Ile/Val73Ile (Plasmodium falciparum, UniProt Q8I3X4, V66I/V73I).
T6 construct: made in house; host or cells: Escherichia coli Top 10
T6 sequence (Q8I3X4 1-245 V66I/V73I): T1 sequence (Q8I3X4 1-245 V73I/Y160F) with V66I, F160Y
In words: Substrate kinetics, coupled assay. Particulars: for Km / kcat: substrate = label. The method, then: as §1

In another assay the target is T7, PfPNP Val73Ser (Plasmodium falciparum, UniProt Q8I3X4, V73S).
T7 construct: made in house; host or cells: Escherichia coli Top 10
T7 sequence (Q8I3X4 1-245 V73S): T1 sequence (Q8I3X4 1-245 V73I/Y160F) with I73S, F160Y
As to the kind of experiment: Substrate kinetics, coupled assay. As to conditions: for Km / kcat: substrate = label. How it is done: as §1

A further assay deals with T8, PfPNP (wild type) (Plasmodium falciparum, UniProt Q8I3X4).
T8 construct: made in house; host or cells: Escherichia coli Top 10
T8 sequence (Q8I3X4 1-245): T1 sequence (Q8I3X4 1-245 V73I/Y160F) with I73V, F160Y
In words: Substrate kinetics, xanthine oxidase coupled phosphorolysis assay. The method, then: as §1

Numbering of substitutions follows the chain as printed.

As to 5′-methylthioinosine, the Michaelis constant (Km) on PfPNP Val73Ile/Tyr160Phe came to 60 ± 33 µM; at PfPNP Val66Ala it was 0.3 ± 0.4 µM; at PfPNP Tyr160Ala, 200 ± 59 µM; at PfPNP Val73Ile, 11 ± 8 µM; at PfPNP Val66Ile/Val73Ile, 15 ± 5 µM; at PfPNP Val73Ser, 2100 µM. Also, the Km at PfPNP (wild type) (substrate = label, 50 mM KH2PO4 pH 7.4, mean ± SD) amounted to 8.8 ± 0.2 µM. Further, the catalytic constant (kcat) at PfPNP Val73Ile/Tyr160Phe was determined as 0.28 ± 0.04 s⁻¹; at PfPNP Val66Ala, 0.12 ± 0.04 s⁻¹; at PfPNP Tyr160Ala, 0.09 ± 0.01 s⁻¹; on PfPNP Val66Ile (substrate = label), 1.2 ± 0.7 s⁻¹; on PfPNP Val73Ile, 0.81 ± 0.03 s⁻¹; on PfPNP Val66Ile/Val73Ile, 0.91 ± 0.20 s⁻¹. Moreover, the kcat on PfPNP Val73Ser stood at 0.02 ± 0 s⁻¹; at PfPNP (wild type) (substrate = label), 0.83 ± 0.03 s⁻¹. Further, on PfPNP Tyr160Ala, the “reduced catalytic efficiency compared to wild-type PfPNP” value was around 1000 fold.

For the compound `OC[C@H]1O[C@@H](n2cnc3c(O)ncnc32)[C@H](O)[C@@H]1O` [Inosine, inosine], the “Ino/MTI kcat/Km Ratio” value came out at 35 at PfPNP Val73Ile/Tyr160Phe; 0.5 on PfPNP Val66Ala; 0.5 at PfPNP Tyr160Ala; 1.4 at PfPNP Val66Ile; 2.0 at PfPNP Val73Ile; 2.7 on PfPNP Val66Ile/Val73Ile. For the same compound, the “Ino/MTI kcat/Km Ratio” value at PfPNP Val73Ser was 4100; on PfPNP (wild type), 1.6. Moreover, the Km at PfPNP Val73Ile/Tyr160Phe is 3.6 ± 1.3 µM; at PfPNP Val66Ala, 13 ± 10 µM; at PfPNP Tyr160Ala it was 5400 ± 120 µM; at PfPNP Val66Ile (substrate = label) it was 16 ± 4 µM; at PfPNP Val73Ile, 13 ± 2 µM; at PfPNP Val66Ile/Val73Ile, 28 ± 11 µM. At PfPNP Val73Ser, the Michaelis-Menten constant (Km) came out at 5 µM. The kcat amounted to 0.59 ± 0.13 s⁻¹ at PfPNP Val73Ile/Tyr160Phe; 2.4 ± 0.6 s⁻¹ on PfPNP Val66Ala; 0.1 ± 0.0 s⁻¹ on PfPNP Tyr160Ala; 2.0 ± 0.2 s⁻¹ on PfPNP Val66Ile (substrate = label); 1.9 ± 0.7 s⁻¹ at PfPNP Val73Ile; 4.6 ± 0.6 s⁻¹ on PfPNP Val66Ile/Val73Ile. Moreover, on PfPNP Val73Ser, the kcat was found to be 0.2 ± 0.0 s⁻¹. Moreover, the “reduced catalytic efficiency compared to wild-type PfPNP” value on PfPNP Tyr160Ala is given as around 1000 fold.
